The experiment concerns HIV virus. The experiment in a line: Screening method for anti-HIV activity (NCI AIDS screening trial, XTT formazan, protection of virus-infected T4 lymphocytes). The class given is cell-based. The settings on record: Human immunodeficiency virus 1, CCRF-CEM, infected culture treated, CEM cells, 6-7 days. The method, then:
Description of the Screening Method for Anti-HIV Activity
The process is suitable for locating active substances which are effective in all phases of the virus proliferation cycle. The test principle is based on the destruction of the T4 lymphocytes by the HIV virus.
Small amounts of HIV virus are added to the cell cultures. At least two complete viral reproduction cycles are needed to destroy the T4 lymphocytes and to be able to evaluate the results.
Active substances that react with virions (virus-like particles), cells or with products of the viral genes in order to interact with viral activities and thus block proliferation of the viruses will protect the cells from destruction and lysis.
The test system is automated to permit examination of a large number of cells infected with viruses. Compounds which degenerate, denaturise or that are rapidly metabolised cannot, however, be reliably discovered using the test procedure.
AZT (azidothymidine) and DDC serve as positive controls for the test.
1. T4 lymphocytes (CEM cell line) are mixed with virus in the ratio of virus:cell of ca. 1:0.05 in microtiter plates.
2. […]
5. The individual cell cultures are analysed spectrophotometrically and examined microscopically to detect surviving cells in order to confirm the protective effect. […]
7. The activity of the tested compound is determined. […]
Background: Tetrazolium dyes change colour on reduction, which living cells bring about.

In general, pEC50 refers to the EC50 on a negative log10 scale, so that one unit is a factor of ten. Read a low pEC50 as a high EC50.

Each structure is given as a SMILES string. pEC50: −log10 of the molar value.

As to `Cc1cn([C@H]2C[C@H](N=[N+]=[N-])[C@@H](CO)O2)c(=O)[nH]c1=O` [AZT, 3'-azido-3'-desoxythymidine], the pEC50 is 8.51.

The values are drawn from patent US5985834A, “Nova- and decapeptides in the preparation of a drug for the treatment of aids” (ASTA Medica AG, priority 1993, dated 1999).
